# Values joined by “and” are separate entries in the source; they are usually repeats but may differ in a detail not shown here. Equal entries are not always repeated. Where two headings read alike, the source gives them in different places.
# Columns and labels:
# in vitro [1] = settings: monkey
# CV-B3 (strain Nancy) = assay type: cell-based, coxsackievirus B3
# in vitro [2] = settings: human
# in vitro [3] = settings: human; remark: listed apart in the source
# CV-B3 = experiment: microbe, parasite or virus in culture; assay type: cell-based, coxsackievirus B3
# [4] = tested on: all representative viruses; assay type: cell-based
# Rluc-CV-B3 = assay type: cell-based; settings: Fig 3B
# [5] = Enterovirus B, CVB3, HeLa R19, read-out: CV-B3 EC50 Average
# [6] = Enterovirus B, CVB3, HeLa R19, read-out: CV-B3 Exp 1 EC50
# [7] = Enterovirus B, CVB3, HeLa R19, read-out: CV-B3 Exp2 EC50
# [8] = Enterovirus B, CVB3, HeLa R19, read-out: EC50 HelaR19 Average
# [9] = Enterovirus B, CVB3, HeLa R19, read-out: Exp 1 EC50 HelaR19
# [10] = Enterovirus B, CVB3, HeLa R19, read-out: Exp 2 EC50 HelaR19
# [11] = Enterovirus B, CVB3, HeLa R19, […], read-out: EC50 Exp1
# [12] = Enterovirus B, CVB3, HeLa R19, read-out: EC50 Exp1
# [13] = Enterovirus B, CVB3 / genotype 2c, HeLa R19, read-out: EC50 CV-B3 WT
smiles,measurement,setting,value
"COc1ccc(N(Cc2ccc(F)cc2)C(=O)c2ccco2)cc1 [Compound 1, N-(4-fluorobenzyl)-N-(4-methoxyphenyl)furan-2-carboxamide]",CC50,in vitro [1]; CC50,50.65 ± 0.32 µM
same,CC50,in vitro [1]; CC50 BGM Average,50.6 µM
same,CC50,in vitro [1]; Exp 1 CC50 BGM,51 µM
same,CC50,in vitro [1]; Exp 2 CC50 BGM,50.3 µM
same,"virus titer, TCID50/ml (Figure 2A)",CV-B3 (strain Nancy); compound concentration 1 µM,1000000000 TCID50/ml
same,"virus titer, TCID50/ml (Figure 2A)",CV-B3 (strain Nancy); compound concentration 10 µM,31622.8 TCID50/ml and 16982.4 TCID50/ml and 21379.6 TCID50/ml
same,CC50,in vitro [2]; CC50,> 30 µM
same,CC50,in vitro [2]; CC50 Average,> 30 µM
same,CC50,in vitro [2]; CC50 Experiement 3,> 30 µM
same,CC50,in vitro [2]; CC50 Experiment 1,> 30 µM
same,CC50,in vitro [2]; CC50 Experiment 2,> 30 µM
same,CC50,in vitro [2]; CC50 HelaR19 Average,43.9 µM
same,CC50,in vitro [2]; Exp 1 CC50,> 30 µM
same,CC50,in vitro [2]; Exp 1 CC50 HelaR19,40.4 µM
same,CC50,in vitro [2]; Exp2 CC50,> 30 µM
same,CC50,in vitro [2]; Exp 2 CC50 HelaR19,47.4 µM
same,CC50,in vitro [3]; CC50 Hap1 Average,45.6 µM
same,CC50,in vitro [3]; Exp 1 CC50 Hap1,45.1 µM
same,CC50,in vitro [3]; Exp 2 CC50 Hap1,46.1 µM
same,antiviral activity against CV-B3 (in words),CV-B3,inhibited
same,"Figure 7 dose-response raw data, CV-B3 (triplicate values)",CV-B3; Concentration 0.001 µM,8.4087 and 12.9113 and 13.3731
same,"Figure 7 dose-response raw data, CV-B3 (triplicate values)",CV-B3; Concentration 0.0046 µM,8.524 and 14.1813 and 13.8349
same,"Figure 7 dose-response raw data, CV-B3 (triplicate values)",CV-B3; Concentration 0.0137 µM,8.178 and 10.6023 and 11.4104
same,"Figure 7 dose-response raw data, CV-B3 (triplicate values)",CV-B3; Concentration 0.0412 µM,8.755 and 10.1405 and 13.8349
same,"Figure 7 dose-response raw data, CV-B3 (triplicate values)",CV-B3; Concentration 0.1235 µM,8.6396 and 9.794 and 10.7177
same,"Figure 7 dose-response raw data, CV-B3 (triplicate values)",CV-B3; Concentration 0.3704 µM,31.7298 and 16.0285 and 26.5345
same,"Figure 7 dose-response raw data, CV-B3 (triplicate values)",CV-B3; Concentration 1.1111 µM,69.1798 and 64.4511 and 60.4699
same,"Figure 7 dose-response raw data, CV-B3 (triplicate values)",CV-B3; Concentration 3.3333 µM,108.671 and 85.22 and 102.264
same,"Figure 7 dose-response raw data, CV-B3 (triplicate values)",CV-B3; Concentration 10 µM,111.619 and 82.0162 and 97.2661
same,EC50,"CV-B3; Enterovirus B, CVB3, HeLa R19",1.92 ± 0.04 µM
same,EC50,CV-B3; [5],1.92 µM
same,EC50,CV-B3; [6],1.87 µM
same,EC50,CV-B3; [7],1.96 µM
same,EC50,"CV-B3; Enterovirus B, CVB3, HeLa R19, read-out: EC50 CV-B3",1.71 ± 0.07 µM
same,EC50,"CV-B3; Enterovirus B, CVB3, HeLa R19, read-out: EC50 CVB3 Experiement 3",1.78 µM
same,EC50,"CV-B3; Enterovirus B, CVB3, HeLa R19, read-out: EC50 CVB3 Experiment 1",1.72 µM
same,EC50,"CV-B3; Enterovirus B, CVB3, HeLa R19, read-out: EC50 CVB3 Experiment 2",1.62 µM
same,EC50,CV-B3; [8],1.76 µM
same,EC50,CV-B3; [9],1.65 µM
same,EC50,CV-B3; [10],1.87 µM
"COc1ccc(N(Cc2ccc(F)cc2)C(=O)c2cc[nH]c2)cc1 [Compound 12a, N-(4-Fluorobenzyl)-N-(4-methoxyphenyl)-1H-pyrrole-3-carboxamide]",inhibition in single-cycle viral replication assay (in words),[4],inhibited all representative viruses
same,CC50,in vitro [1]; CC50,> 100 µM
same,CC50,in vitro [1]; CC50 BGM Average,> 100 µM
same,CC50,in vitro [1]; Exp 1 CC50 BGM,> 100 µM
same,CC50,in vitro [1]; Exp 2 CC50 BGM,> 100 µM
same,"virus titer, TCID50/ml (Figure 2A)",CV-B3 (strain Nancy); compound concentration 0.001 µM,316227800 TCID50/ml and 467735100 TCID50/ml
same,"virus titer, TCID50/ml (Figure 2A)",CV-B3 (strain Nancy); compound concentration 0.01 µM,467735100 TCID50/ml and 316227800 TCID50/ml
same,CC50,in vitro [2]; CC50 Average,> 30 µM
same,CC50,in vitro [2]; CC50 HelaR19 Average,> 100 µM
same,CC50,in vitro [2]; Exp 1 CC50,> 30 µM
same,CC50,in vitro [2]; Exp 1 CC50 HelaR19,> 100 µM
same,CC50,in vitro [2]; Exp2 CC50,> 30 µM
same,CC50,in vitro [2]; Exp 2 CC50 HelaR19,> 100 µM
same,CC50,in vitro [3]; CC50,> 100 µM
same,CC50,in vitro [3]; CC50 Hap1 Average,> 100 µM
same,CC50,in vitro [3]; Exp 1 CC50 Hap1,> 100 µM
same,CC50,in vitro [3]; Exp 2 CC50 Hap1,> 100 µM
same,cytotoxic effect in parallel to single-cycle assay (in words),HeLa R19 cells,none of them showed any cytotoxic effect
same,cross-resistance of 19d-resistant CV-B3 virus pools (in words),CV-B3,cross-resistant
same,increase of antiviral activity against CV-B3,CV-B3,~25 fold
same,"Figure 7 dose-response raw data, CV-B3 (triplicate values)",CV-B3; Concentration 0.001 µM,10.6023 and 13.4886 and 15.1049
same,"Figure 7 dose-response raw data, CV-B3 (triplicate values)",CV-B3; Concentration 0.0137 µM,31.7298 and 16.0285 and 26.5345
same,"Figure 7 dose-response raw data, CV-B3 (triplicate values)",CV-B3; Concentration 0.3704 µM,108.081 and 95.0938 and 115.255
same,"Figure 7 dose-response raw data, CV-B3 (triplicate values)",CV-B3; Concentration 1.1111 µM,110.307 and 87.92 and 98.0623
same,"Figure 7 dose-response raw data, CV-B3 (triplicate values)",CV-B3; Concentration 3.3333 µM,103.381 and 89.7753 and 100.165
same,"Figure 7 dose-response raw data, CV-B3 (triplicate values)",CV-B3; Concentration 10 µM,102.144 and 95.7122 and 98.0623
same,EC50,"CV-B3; Enterovirus B, CVB3, HeLa",0.01 ± 0.01 µM
same,EC50,CV-B3; [11],0.18 µM
same,EC50,"CV-B3; Enterovirus B, CVB3, HeLa R19, read-out: 50% effective concentration [EC50]",0.08 ± 0.08 µM
same,EC50,CV-B3; [6],0.059 µM
same,EC50,CV-B3; [7],0.095 µM
same,EC50,"CV-B3; Enterovirus B, CVB3, HeLa R19, read-out: EC50 Average",0.0187 µM
same,EC50,CV-B3; [12],0.017 µM
same,EC50,"CV-B3; Enterovirus B, CVB3, HeLa R19, read-out: EC50 Exp2",0.37 µM
same,EC50,CV-B3; [8],0.0112 µM
same,EC50,CV-B3; [9],0.004 µM
same,EC50,CV-B3; [10],0.0183 µM
same,EC50,CV-B3; [13],0.02 ± 0.01 µM
same,EC50,CV-B3; read-out: EC50 Exp2,0.21 µM
same,resistance profile against Rluc-CV-B3 2C mutants (in words),Rluc-CV-B3,resembled that of the parental compound 1 and (S)-fluoxetine
"O=C(c1ccco1)N(Cc1ccc(F)cc1)c1ccccc1 [Compound 19b, N-(4-Fluorobenzyl)-N-phenylfuran-2-carboxamide]",CC50,in vitro [1]; CC50,> 100 µM
same,CC50,in vitro [1]; CC50 BGM Average,> 100 µM
same,CC50,in vitro [1]; Exp 1 CC50 BGM,> 100 µM
same,CC50,in vitro [1]; Exp 2 CC50 BGM,> 100 µM
same,CC50,in vitro [2]; CC50 Average,> 30 µM
same,CC50,in vitro [2]; CC50 HelaR19 Average,> 100 µM
same,CC50,in vitro [2]; Exp 1 CC50,> 30 µM
same,CC50,in vitro [2]; Exp 1 CC50 HelaR19,> 100 µM
same,CC50,in vitro [2]; Exp2 CC50,> 30 µM
same,CC50,in vitro [2]; Exp 2 CC50 HelaR19,> 100 µM
same,CC50,in vitro [3]; CC50,> 100 µM
same,CC50,in vitro [3]; CC50 Hap1 Average,> 100 µM
same,CC50,in vitro [3]; Exp 1 CC50 Hap1,> 100 µM
same,CC50,in vitro [3]; Exp 2 CC50 Hap1,> 100 µM
same,cross-resistance of 19d-resistant CV-B3 virus pools (in words),CV-B3,cross-resistant
same,increase or decrease of antiviral activity against CV-B3,CV-B3,less than 3 fold
same,EC50,CV-B3; [5],0.83 µM
same,EC50,CV-B3; [6],0.73 µM
same,EC50,CV-B3; [7],0.93 µM
same,EC50,CV-B3; [12],0.22 µM
same,EC50,CV-B3; [8],0.68 µM
same,EC50,CV-B3; [9],0.46 µM
same,EC50,CV-B3; [10],0.89 µM
same,EC50,CV-B3; [13],0.29 ± 0.05 µM
"O=C(c1ccco1)N(Cc1ccc(C(F)(F)F)cc1)c1ccccc1 [Compound 19d, N-phenyl-N-(4-(trifluoromethyl)benzyl)furan-2-carboxamide]",inhibition in single-cycle viral replication assay (in words),[4],inhibited all representative viruses
same,CC50,in vitro [1]; CC50,92.6 ± 1.51 µM
same,CC50,in vitro [1]; CC50 BGM Average,92.6 µM
same,CC50,in vitro [1]; Exp 1 CC50 BGM,91.1 µM
same,CC50,in vitro [1]; Exp 2 CC50 BGM,94.1 µM
same,"virus titer, TCID50/ml (Figure 2A)",CV-B3 (strain Nancy); compound concentration 10 µM,2187.76 TCID50/ml and 1625.6 TCID50/ml
same,"virus titer, TCID50/ml (Figure 2A)",CV-B3 (strain Nancy); compound concentration 30 µM,2187.76 TCID50/ml and 1479.11 TCID50/ml
same,CC50,in vitro [2]; CC50 Average,> 30 µM
same,CC50,in vitro [2]; CC50 HelaR19 Average,93.7 µM
same,CC50,in vitro [2]; Exp 1 CC50,> 30 µM
same,CC50,in vitro [2]; Exp 1 CC50 HelaR19,92.3 µM
same,CC50,in vitro [2]; Exp2 CC50,> 30 µM
same,CC50,in vitro [2]; Exp 2 CC50 HelaR19,95 µM
same,CC50,in vitro [3]; CC50 Hap1 Average,97.8 µM
same,CC50,in vitro [3]; Exp 1 CC50 Hap1,97.5 µM
same,CC50,in vitro [3]; Exp 2 CC50 Hap1,98.1 µM
same,cytotoxic effect in parallel to single-cycle assay (in words),HeLa R19 cells,none of them showed any cytotoxic effect
same,"Cytotoxicity values, % compared to DMSO (Figure 2B)",HeLa R19 cells; compound concentration 0.01 µM,101.341%
same,effect of the substitution on antiviral activity against CV-B3 (in words),CV-B3,only marginally affected antiviral activity
same,EC50,CV-B3; [11],7.98 µM
same,EC50,CV-B3; [5],0.79 µM
same,EC50,CV-B3; [6],0.73 µM
same,EC50,CV-B3; [7],0.85 µM
same,EC50,CV-B3; [12],1.04 µM
same,EC50,CV-B3; [8],0.77 µM
same,EC50,CV-B3; [9],0.91 µM
same,EC50,CV-B3; [10],0.63 µM
same,EC50,CV-B3; [13],1.26 ± 0.15 µM

# From paper PMC7673538 (PLoS Biology, 2020)
